Laboratory results published in patent US9227971B2, “Pyrazolo[1,5-a]pyrimidine compounds as mTOR inhibitors” (Merck Sharp & Dohme Corp., priority 2010, dated 2016).

Legend:
[1] = tested on: phosphorylated AKT Ser473 (pAKT S473), mTORC2 activity, PC3 cells; experiment: mTOR target engagement assay, immunofluorescent cell-based, pAKT S473 readout (mTORC2 activity); details: Homo sapiens, PC-3, PC3 cells
How it was run: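 After blocking, cells were stained overnight at 4 °C with anti-pAKT S473 antibody, then a fluorescent secondary; inhibition was read as reduced fluorescence intensity.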

[2] = tested on: phosphorylated 4E-BP1 Thr37/46 (p4E-BP1 Thr37/46), mTORC1 activity, PC3 cells; experiment: mTOR target engagement assay, immunofluorescent cell-based, p4E-BP1 Thr37/46 readout (mTORC1 activity); details: Homo sapiens, PC-3, PC3 cells; read-out: p4E-BP1 Thr37/46 IC50
How it was run: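 PTEN-mutant PC3 prostate cells were treated with serially diluted compound in 5% FBS F12 medium (0.25% DMSO) for ninety minutes at 37° C, glyoxal-fixed, then immunostained overnight at 4° C for p4E-BP1 Thr37/46 with an Alexa Fluor 488 secondary. IC50 came from four-parameter fits of fluorescence, DMSO-only wells defining 100%.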

Question: How did the IC50 [1] turn out when `Nc1c(C2CC2)c([C@H]2CC3CC[C@H](C2)N3C(=O)c2nnc[nH]2)nc2c(-c3cnc4c(c3)OCCC4O)cnn12` (stereo partly drawn) [Compound 7.64, ((1R,3s,5S)-3-(7-amino-6-cyclopropyl-3-(4-hydroxy-3,4-dihydro-2H-pyrano[3,2-b]pyridin-7-yl)pyrazolo[1,5-a]pyrimidin-5-yl)-8-azabicyclo[3.2.1]octan-8-yl)(4H-1,2,4-triazol-3-yl)methanone] was run?
Answer: 100 to 1000 nM

Question: What about the IC50 [2] of the same compound?
Answer: 100 to 1000 nM

Question: What does the source list for `CC(=O)c1c([C@H]2CC3CC[C@H](C2)N3C(=O)c2nnc[nH]2)nc2c(-c3ccc(C(O)C(F)(F)F)nc3)cnn2c1N` (stereo partly drawn) [Compound 7.65, 1-(5-((1R,3s,5S)-8-(4H-1,2,4-triazole-3-carbonyl)-8-azabicyclo[3.2.1]octan-3-yl)-7-amino-3-(6-(2,2,2-trifluoro-1-hydroxyethyl)pyridin-3-yl)pyrazolo[1,5-a]pyrimidin-6-yl)ethanone]?
Answer: IC50 [1]: 100 to 1000 nM; IC50 [2]: 100 to 1000 nM

Question: How did the IC50 [1] turn out when `CC(=O)c1c([C@@H]2C[C@H]3CC[C@@H](C2)N3C(=O)c2cc[nH]n2)nc2c(-c3ccc(C(O)C(F)(F)F)nc3)cnn2c1N` (stereo partly drawn) [Compound 7.66, 1-(5-((1R,3s,5S)-8-(1H-pyrazole-3-carbonyl)-8-azabicyclo[3.2.1]octan-3-yl)-7-amino-3-(6-(2,2,2-trifluoro-1-hydroxyethyl)pyridin-3-yl)pyrazolo[1,5-a]pyrimidin-6-yl)ethanone] was run?
Answer: 1000 to 10000 nM

Question: And the IC50 [2]?
Answer: 100 to 1000 nM

Question: What does the source list for `CC(=O)c1c([C@@H]2C[C@H]3CC[C@@H](C2)N3C(=O)CO)nc2c(-c3ccc(C(O)C(F)(F)F)nc3)cnn2c1N` (stereo partly drawn) [Compound 7.67, 1-((1R,3s,5S)-3-(6-acetyl-7-amino-3-(6-(2,2,2-trifluoro-1-hydroxyethyl)pyridin-3-yl)pyrazolo[1,5-a]pyrimidin-5-yl)-8-azabicyclo[3.2.1]octan-8-yl)-2-hydroxyethanone]?
Answer: IC50 [1]: 1000 to 10000 nM; IC50 [2]: 100 to 1000 nM

Question: Which IC50 [1] does the source give for `CS(=O)(=O)c1c([C@H]2CC3CC[C@H](C2)N3C(=O)c2cc[nH]n2)nc2c(-c3ccc(C(O)C(F)(F)F)nc3)cnn2c1N` (stereo partly drawn) [Compound 7.69, ((1R,3s,5S)-3-(7-amino-6-(methylsulfonyl)-3-(6-(2,2,2-trifluoro-1-hydroxyethyl)pyridin-3-yl)pyrazolo[1,5-a]pyrimidin-5-yl)-8-azabicyclo[3.2.1]octan-8-yl)(1H-pyrazol-3-yl)methanone] here?
Answer: 1000 to 10000 nM

Question: What about the IC50 [2] of the same compound?
Answer: 1000 to 10000 nM

Question: What does the source list for `CS(=O)(=O)c1c([C@@H]2C[C@H]3CC[C@@H](C2)N3C(=O)CO)nc2c(-c3ccc(C(O)C(F)(F)F)nc3)cnn2c1N` (stereo partly drawn) [Compound 7.70, 1-((1R,3s,5S)-3-(7-amino-6-(methylsulfonyl)-3-(6-(2,2,2-trifluoro-1-hydroxyethyl)pyridin-3-yl)pyrazolo[1,5-a]pyrimidin-5-yl)-8-azabicyclo[3.2.1]octan-8-yl)-2-hydroxyethanone]?
Answer: IC50 [1]: 1000 to 10000 nM; IC50 [2]: 1000 to 10000 nM

Question: What does the source list for `Cc1nnc(C(=O)N2[C@@H]3CC[C@H]2C[C@H](c2nc4c(-c5ccc(C6(O)CCC6)nc5)cnn4c(N)c2C2CC2)C3)[nH]1` [Compound 7.71, ((1R,3s,5S)-3-(7-amino-6-cyclopropyl-3-(6-(1-hydroxycyclobutyl)pyridin-3-yl)pyrazolo[1,5-a]pyrimidin-5-yl)-8-azabicyclo[3.2.1]octan-8-yl)(5-methyl-4H-1,2,4-triazol-3-yl)methanone]?
Answer: IC50 [1]: 100 to 1000 nM; IC50 [2]: 100 to 1000 nM

Question: Which IC50 [1] does the source give for `Nc1c(C2CC2)c([C@@H]2C[C@H]3CC[C@@H](C2)N3C(=O)CO)nc2c(-c3ccc(C4(O)CCC4)nc3)cnn12` [Compound 7.72, 1-((1R,3s,5S)-3-(7-amino-6-cyclopropyl-3-(6-(1-hydroxycyclobutyl)pyridin-3-yl)pyrazolo[1,5-a]pyrimidin-5-yl)-8-azabicyclo[3.2.1]octan-8-yl)-2-hydroxyethanone] here?
Answer: 100 to 1000 nM

Question: And the IC50 [2]?
Answer: 100 to 1000 nM

Question: What does the source list for `CC(=O)c1c([C@@H]2C[C@H]3CC[C@@H](C2)N3C(=O)c2nnc[nH]2)nc2c(-c3ccc([C@@H](O)C(F)(F)F)nc3)cnn2c1N` [Compound 7.73, 1-(5-((1R,3s,5S)-8-(4H-1,2,4-triazole-3-carbonyl)-8-azabicyclo[3.2.1]octan-3-yl)-7-amino-3-(6-((R)-2,2,2-trifluoro-1-hydroxyethyl)pyridin-3-yl)pyrazolo[1,5-a]pyrimidin-6-yl)ethanone]?
Answer: IC50 [1]: 100 to 1000 nM; IC50 [2]: 100 to 1000 nM

Question: Which IC50 [1] does the source give for `CC(=O)c1c([C@@H]2C[C@H]3CC[C@@H](C2)N3C(=O)c2nnc[nH]2)nc2c(-c3ccc([C@H](O)C(F)(F)F)nc3)cnn2c1N` [Compound 7.74, 1-(5-((1R,3s,5S)-8-(4H-1,2,4-triazole-3-carbonyl)-8-azabicyclo[3.2.1]octan-3-yl)-7-amino-3-(6-((S)-2,2,2-trifluoro-1-hydroxyethyl)pyridin-3-yl)pyrazolo[1,5-a]pyrimidin-6-yl)ethanone] here?
Answer: 100 to 1000 nM

Question: What about the IC50 [2] of the same compound?
Answer: 100 to 1000 nM

Question: Which results are given for `CC(=O)c1c([C@@H]2C[C@H]3CC[C@@H](C2)N3C(=O)c2nnc(N)[nH]2)nc2c(-c3ccc(C(O)(C(F)(F)F)C(F)(F)F)nc3)cnn2c1N` [Compound 7.78, 1-(7-amino-5-((1R,3s,5S)-8-(5-amino-4H-1,2,4-triazole-3-carbonyl)-8-azabicyclo[3.2.1]octan-3-yl)-3-(6-(1,1,1,3,3,3-hexafluoro-2-hydroxypropan-2-yl)pyridin-3-yl)pyrazolo[1,5-a]pyrimidin-6-yl)ethanone]?
Answer: IC50 [1]: 100 to 1000 nM; IC50 [2]: 100 to 1000 nM

Question: How did the IC50 [1] turn out when `CC(=O)c1c([C@@H]2C[C@H]3CC[C@@H](C2)N3C(=O)c2cc(N)n[nH]2)nc2c(-c3ccc(C(O)(C(F)(F)F)C(F)(F)F)nc3)cnn2c1N` [Compound 7.79, 1-(7-amino-5-((1R,3s,5S)-8-(3-amino-1H-pyrazole-5-carbonyl)-8-azabicyclo[3.2.1]octan-3-yl)-3-(6-(1,1,1,3,3,3-hexafluoro-2-hydroxypropan-2-yl)pyridin-3-yl)pyrazolo[1,5-a]pyrimidin-6-yl)ethanone] was run?
Answer: 100 to 1000 nM

Question: And the IC50 [2]?
Answer: 100 to 1000 nM

Question: `CC(=O)c1c([C@@H]2C[C@H]3CC[C@@H](C2)N3C(=O)c2nnc[nH]2)nc2c(-c3ccc(C(N)(C(F)(F)F)C(F)(F)F)nc3)cnn2c1N` [Compound 7.80, 1-(5-((1R,3s,5S)-8-(4H-1,2,4-triazole-3-carbonyl)-8-azabicyclo[3.2.1]octan-3-yl)-7-amino-3-(6-(2-amino-1,1,1,3,3,3-hexafluoropropan-2-yl)pyridin-3-yl)pyrazolo[1,5-a]pyrimidin-6-yl)ethanone] was tested. Which IC50 [1] did it give?
Answer: 1000 to 10000 nM

Question: What about the IC50 [2] of the same compound?
Answer: 100 to 1000 nM

Question: Which IC50 [1] does the source give for `CC(=O)c1c([C@@H]2C[C@H]3CC[C@@H](C2)N3C(=O)CO)nc2c(-c3ccc(C(N)(C(F)(F)F)C(F)(F)F)nc3)cnn2c1N` [Compound 7.81, 1-((1R,3s,5S)-3-(6-acetyl-7-amino-3-(6-(2-amino-1,1,1,3,3,3-hexafluoropropan-2-yl)pyridin-3-yl)pyrazolo[1,5-a]pyrimidin-5-yl)-8-azabicyclo[3.2.1]octan-8-yl)-2-hydroxyethanone] here?
Answer: > 10000 nM

Question: And the IC50 [2]?
Answer: 1000 to 10000 nM

Question: Which IC50 [1] does the source give for `CC(=O)c1c([C@@H]2C[C@H]3CC[C@@H](C2)N3C(=O)c2nnc(C)[nH]2)nc2c(-c3ccc(C(N)(C(F)(F)F)C(F)(F)F)nc3)cnn2c1N` [Compound 7.82, 1-(7-amino-3-(6-(2-amino-1,1,1,3,3,3-hexafluoropropan-2-yl)pyridin-3-yl)-5-((1R,3s,5S)-8-(5-methyl-4H-1,2,4-triazole-3-carbonyl)-8-azabicyclo[3.2.1]octan-3-yl)pyrazolo[1,5-a]pyrimidin-6-yl)ethanone] here?
Answer: 1000 to 10000 nM

Question: And the IC50 [2]?
Answer: 1000 to 10000 nM

Question: Which IC50 [1] does the source give for `CC(=O)c1c([C@@H]2C[C@H]3CC[C@@H](C2)N3C(=O)c2nnc(N)[nH]2)nc2c(-c3ccc(C(N)(C(F)(F)F)C(F)(F)F)nc3)cnn2c1N` [Compound 7.83] here?
Answer: 1000 to 10000 nM

Question: And the IC50 [2]?
Answer: 100 to 1000 nM

Question: Which results are given for `CC(=O)c1c([C@@H]2C[C@H]3CC[C@@H](C2)N3C(=O)c2cc(N)n[nH]2)nc2c(-c3ccc(C(N)(C(F)(F)F)C(F)(F)F)nc3)cnn2c1N` [Compound 7.84, 1-(7-amino-3-(6-(2-amino-1,1,1,3,3,3-hexafluoropropan-2-yl)pyridin-3-yl)-5-((1R,3s,5S)-8-(3-amino-1H-pyrazole-5-carbonyl)-8-azabicyclo[3.2.1]octan-3-yl)pyrazolo[1,5-a]pyrimidin-6-yl)ethanone]?
Answer: IC50 [1]: 1000 to 10000 nM; IC50 [2]: 1000 to 10000 nM

Question: `Nc1c(C2CC2)c([C@@H]2C[C@H]3CC[C@@H](C2)N3C(=O)c2nnc[nH]2)nc2c(-c3ccc(C(N)(C(F)(F)F)C(F)(F)F)nc3)cnn12` [Compound 7.85, ((1R,3s,5S)-3-(7-amino-3-(6-(2-amino-1,1,1,3,3,3-hexafluoropropan-2-yl)pyridin-3-yl)-6-cyclopropylpyrazolo [1,5-a]pyrimidin-5-yl)-8-azabicyclo[3.2.1]octan-8-yl)(4H-1,2,4-triazol-3-yl)methanone] was tested. Which IC50 [1] did it give?
Answer: 1000 to 10000 nM

Question: And the IC50 [2]?
Answer: 1000 to 10000 nM

Question: With `Nc1nnc(C(=O)N2[C@@H]3CC[C@H]2C[C@H](c2nc4c(-c5ccc(C(N)(C(F)(F)F)C(F)(F)F)nc5)cnn4c(N)c2C2CC2)C3)[nH]1` [Compound 7.88, ((1R,3s,5S)-3-(7-amino-3-(6-(2-amino-1,1,1,3.3,3-hexafluoropropan-2-yl)pyridin-3-yl)-6-cyclopropylpyrazolo [1,5-a]pyrimidin-5-yl)-8-azabicyclo[3.2.1]octan-8-yl)(5-amino-4H-1,2,4-triazol-3-yl)methanone] as the compound, how does the IC50 [1] read?
Answer: 1000 to 10000 nM

Question: What about the IC50 [2] of the same compound?
Answer: 1000 to 10000 nM

Question: For `Nc1cc([C@@H]2C[C@H]3CC[C@@H](C2)N3C(=O)c2ncn[nH]2)nc2c(-c3ccc(CO)nc3)cnn12` [Compound 7.97, ((1R,3s,5S)-3-(7-amino-3-(6-(hydroxymethyl)pyridin-3-yl)pyrazolo[1,5-a]pyrimidin-5-yl)-8-azabicyclo[3.2.1]octan-8-yl)(1H-1,2,4-triazol-5-yl)methanone], which IC50 [1] is on record?
Answer: > 10000 nM

Question: And the IC50 [2]?
Answer: 1000 to 10000 nM
